# Calls of active or inactive are those of the source. The calls are words filed in the database; no cut-off is given here.
# Experiments:
# [1] = tested on: DU-145; assay: Cytotoxicity against human DU-145 cells assessed as reduction in cell viability at 1 to 10 uM measured after 3 hrs by Celltiter-Glo reagent based assay; format: toxicity; conditions: du-145, 3 h, dose 1-10 µM
# [2] = tested on: Staphylococcus aureus; assay: Antibacterial activity against methicillin susceptible Staphylococcus aureus ATCC 25923 assessed as inhibition of bacterial growth incubated for 20 to 24 hrs by microbroth serial dilution method; format: functional; conditions: time 20-24 hrs, read-out: MIC100
# [3] = tested on: Enterococcus faecalis; assay: Antibacterial activity against Enterococcus faecalis assessed as inhibition of bacterial growth incubated for 20 to 24 hrs by microbroth serial dilution method; format: functional; conditions: time 20-24 hrs, read-out: MIC100
# [4] = tested on: Streptococcus pneumoniae; assay: Antibacterial activity against Streptococcus pneumoniae assessed as inhibition of bacterial growth incubated for 20 to 24 hrs by microbroth serial dilution method; format: functional; conditions: time 20-24 hrs, read-out: MIC100
# [5] = tested on: Staphylococcus aureus; assay: Antibacterial activity against methicillin resistant Staphylococcus aureus USA300 FPR3757 assessed as inhibition of bacterial growth incubated for 20 to 24 hrs by microbroth serial dilution method; format: functional; conditions: time 20-24 hrs, read-out: MIC100
# [6] = Metabolic stability in human liver assessed as intrinsic clearance at 1 uM measured up to 30 mins by LC-MS/MS analysis; format: ADME, tissue-based; conditions: read-out: CLH
# [7] = tested on: Staphylococcus aureus; assay: Antibacterial activity against methicillin susceptible Staphylococcus aureus ATCC 29213 assessed as inhibition of bacterial growth incubated for 20 to 24 hrs by microbroth serial dilution method; format: functional; conditions: time 20-24 hrs, read-out: MIC100
# [8] = tested on: Caco-2; assay: Cytotoxicity against human Caco-2 cells assessed as reduction in cell viability at 1 to 10 uM measured after 1 to 8 days by Celltiter-Glo reagent based assay; format: toxicity; conditions: caco-2, 10 µM, dose lower 1 µM, time lower 1 day, dose upper 10 µM, time upper 8 day
# [9] = Metabolic stability in mouse liver microsomes assessed as half-life at 1 uM measured up to 60 mins by LC-MS/MS analysis; format: ADME, Microsome
# [10] = Metabolic stability in human liver microsomes assessed as half-life at 1 uM measured up to 30 mins by LC-MS/MS analysis; format: ADME, Microsome
# [11] = tested on: MDCK-MDR1; assay: Cytotoxicity against MDCKII-MDR1 cells assessed as reduction in cell viability at 1 to 10 uM measured after 3 hrs by Celltiter-Glo reagent based assay; format: toxicity, Canis lupus familiaris; conditions: dog, mdck-mdr1, 3 h, dose 1-10 µM
# [12] = Metabolic stability in mouse liver assessed as intrinsic clearance at 1 uM measured up to 60 mins by LC-MS/MS analysis; format: ADME, tissue-based; conditions: read-out: CLH
# [13] = tested on: Enterococcus faecium; assay: Antibacterial activity against vancomycin, ampicillin and ciprofloxacin resistant Enterococcus faecium clinical isolate 5 assessed as inhibition of bacterial growth incubated for 20 to 24 hrs by microbroth serial dilution method; format: functional; conditions: time 20-24 hrs, read-out: MIC100
# [14] = tested on: Staphylococcus aureus; assay: Antibacterial activity against methicillin resistant Staphylococcus aureus clinical isolate 933010 assessed as inhibition of bacterial growth incubated for 20 to 24 hrs by microbroth serial dilution method; format: functional; conditions: time 20-24 hrs, read-out: MIC100
# [15] = tested on: Enterococcus faecium; assay: Antibacterial activity against vancomycin, ampicillin and ciprofloxacin resistant Enterococcus faecium clinical isolate 1 assessed as inhibition of bacterial growth incubated for 20 to 24 hrs by microbroth serial dilution method; format: functional; conditions: time 20-24 hrs, read-out: MIC100
# [16] = tested on: Staphylococcus aureus; assay: Antibacterial activity against mupirocin resistant Staphylococcus aureus 4828 assessed as inhibition of bacterial growth incubated for 20 to 24 hrs by microbroth serial dilution method; format: functional; conditions: time 20-24 hrs, read-out: MIC100
# [17] = tested on: Staphylococcus aureus; assay: Antibacterial activity against methicillin resistant Staphylococcus aureus clinical isolate 55508 assessed as inhibition of bacterial growth incubated for 20 to 24 hrs by microbroth serial dilution method; format: functional; conditions: time 20-24 hrs, read-out: MIC100
# [18] = tested on: Staphylococcus aureus; assay: Antibacterial activity against methicillin resistant Staphylococcus aureus clinical isolate 52518 assessed as inhibition of bacterial growth incubated for 20 to 24 hrs by microbroth serial dilution method; format: functional; conditions: time 20-24 hrs, read-out: MIC100
# [19] = Toxicity in female BALB/cJRj mouse model of skin infection infected with Staphylococcus aureus ATCC 29213 assessed as skin irritation at 2 % administered twice daily at 6 hrs interval as cream formulation and measured on day 4; conditions: in vivo, topical_or_ocular, 96 h, route top, time 4 day
# [20] = tested on: Staphylococcus aureus; assay: Antibacterial activity against Staphylococcus aureus ATCC 29213 infected in skin infection female BALB/cJRj mouse model assessed as reduction in bacterial load in wound at 2 % administered twice daily at 6 hrs interval as cream formulation and measured on day 1; format: functional; conditions: route top, time 1 day
# [21] = Toxicity in female BALB/cJRj mouse model of skin infection infected with Staphylococcus aureus ATCC 29213 assessed as skin toxicity at 2 % administered twice daily at 6 hrs interval as cream formulation and measured on day 4; conditions: in vivo, topical_or_ocular, 96 h, route top, time 4 day
# [22] = tested on: Staphylococcus aureus; assay: Antibacterial activity against Staphylococcus aureus ATCC 29213 infected in skin infection female BALB/cJRj mouse model assessed as reduction in bacterial load in wound at 2 % administered twice daily at 6 hrs interval as cream formulation and measured on day 4 (reference value: 5.3 x 10^3 CFU/ml); format: functional; conditions: route top, time 4 day
# [23] = tested on: Staphylococcus aureus; assay: Antibacterial activity against Staphylococcus aureus ATCC 29213 infected in skin infection female BALB/cJRj mouse model assessed as reduction in bacterial load in wound at 2 % administered twice daily at 6 hrs interval as cream formulation and measured on day 5; format: functional; conditions: route top
Structure (SMILES),MIC [2] [µg/mL],MIC [3] [µg/mL],MIC [4] [µg/mL],MIC [5] [µg/mL],CLint scaled at 1 µM [6] [mL/min/kg],MIC [7] [µg/mL],half-life at 1 µM [9] [min],half-life at 1 µM [10] [min],CLint scaled at 1 µM [12] [mL/min/kg],MIC [13] [µg/mL],MIC [14] [µg/mL],MIC [15] [µg/mL],MIC [16] [µg/mL],MIC [17] [µg/mL],MIC [18] [µg/mL],further results
C=C[C@]1(C)C[C@@H](OC(=O)Cn2cc(-c3cncc(NC(=O)c4cnc(OC)cn4)c3)nn2)[C@]2(C)[C@H](C)CC[C@]3(CCC(=O)[C@H]32)[C@@H](C)[C@@H]1O,0.12,0.12,1,0.06,1090,0.06,0.53,5.7,> 10000,0.06,0.12,0.06,0.12,0.12,0.06,Activity [1]: Non-toxic; Activity [8]: Non-toxic; Activity [11]: Non-toxic
C=C[C@]1(C)C[C@@H](OC(=O)Cn2cc(-c3cccc(Nc4ncnc5[nH]cnc45)c3)nn2)[C@]2(C)[C@H](C)CC[C@]3(CCC(=O)[C@H]32)[C@@H](C)[C@@H]1O,,0.5,0.5,0.06,3140,,0.67,2,8160,0.25,,0.25,,,,
C=C[C@]1(C)C[C@@H](OC(=O)CS[C@@H]2C[C@H]3CC[C@@H](C2)N3C)[C@]2(C)[C@H](C)CC[C@]3(CCC(=O)[C@H]32)[C@@H](C)[C@@H]1O [RETAPAMULIN],0.06,0.12,0.06,0.25,2650,0.12,1.3,2.4,2050,0.03,0.5,0.03,0.25,0.25,0.12,
C=C[C@]1(C)C[C@@H](OC(=O)Cn2cc(-c3ccc(Cn4ccc5c(N)ncnc54)nc3)nn2)[C@]2(C)[C@H](C)CC[C@]3(CCC(=O)[C@H]32)[C@@H](C)[C@@H]1O,0.06,,,0.015,3320,0.015,0.58,1.9,9440,0.03,0.03,0.015,< 0.015,< 0.015,< 0.015,Activity [1]: Non-toxic; Activity [19]: Non-toxic; Activity [20]: 5.4 10^5CFU/ml; Activity [21]: Non-toxic; Activity [8]: Non-toxic; Activity [11]: Non-toxic; Activity [22]: 2.5 log10CFU/ml; Activity ([23]; time 5 day): 1.5 10^7CFU/ml
CC(=O)O[C@H]1C[C@@]2(C)[C@@H](C[C@@H](O)[C@H]3[C@@]4(C)CC[C@@H](O)[C@@H](C)[C@@H]4CC[C@@]32C)/C1=C(\CCC=C(C)C)C(=O)O [FUSIDIC ACID],0.12,,,0.25,,0.015,,,,,,,,,,Activity [20]: 4.8 10^4CFU/ml; Activity [22]: 2.5 log10CFU/ml; Activity ([23]; time 5.0 day): Active
C=C[C@]1(C)C[C@@H](OC(=O)Cn2cc(-c3cccc(NC(=O)c4ccc(OC)cc4)c3)nn2)[C@]2(C)[C@H](C)CC[C@]3(CCC(=O)[C@H]32)[C@@H](C)[C@@H]1O,,0.5,0.25,0.12,,,,,,0.25,,0.12,,,,
C=C[C@]1(C)C[C@@H](OC(=O)Cn2cc(-c3ccc(Cn4cnc5c(N)ncnc54)nc3)nn2)[C@]2(C)[C@H](C)CC[C@]3(CCC(=O)[C@H]32)[C@@H](C)[C@@H]1O,0.06,,,,,0.06,0.58,,9510,,,,,,,
C=C[C@]1(C)C[C@@H](OC(=O)Cn2cc(-c3cncc(C(=O)Nc4ccc(OC)nc4)c3)nn2)[C@]2(C)[C@H](C)CC[C@]3(CCC(=O)[C@H]32)[C@@H](C)[C@@H]1O,0.12,0.12,0.5,0.03,2740,< 0.015,0.58,2.3,9440,0.12,0.06,0.12,0.03,0.06,0.06,Activity [1]: Non-toxic; Activity [8]: Non-toxic; Activity [11]: Non-toxic
C=C[C@]1(C)C[C@@H](OC(=O)Cn2cc(-c3cccc(Nc4cc(N)ncn4)c3)nn2)[C@]2(C)[C@H](C)CC[C@]3(CCC(=O)[C@H]32)[C@@H](C)[C@@H]1O,0.25,0.5,1,0.03,1580,0.015,0.76,3.9,7240,0.25,0.12,0.25,0.12,0.12,0.06,Activity [1]: Non-toxic; Activity [8]: Non-toxic; Activity [11]: Non-toxic
C=C[C@]1(C)C[C@@H](OC(=O)Cn2cc(-c3ccc(Cn4cnc5c(N)ncnc54)cc3)nn2)[C@]2(C)[C@H](C)CC[C@]3(CCC(=O)[C@H]32)[C@@H](C)[C@@H]1O,0.06,,,,,0.03,< 0.5,,> 10000,,0.25,,0.06,0.06,0.03,
C=C[C@]1(C)C[C@@H](OC(=O)CS[C@@H]2CC[C@@H](N)C[C@H]2O)[C@]2(C)[C@H](C)CC[C@]3(CCC(=O)[C@H]32)[C@@H](C)[C@@H]1O [LEFAMULIN],0.12,,,,,0.25,11.5,,478,,,,,,,
C=C[C@]1(C)C[C@@H](OC(=O)Cn2cc(-c3cncc(C(=O)Nc4ccc(N)nc4)c3)nn2)[C@]2(C)[C@H](C)CC[C@]3(CCC(=O)[C@H]32)[C@@H](C)[C@@H]1O,,1,1,0.25,,,0.6,,9100,1,,1,,,,
C=C[C@]1(C)C[C@@H](OC(=O)CSC(C)(C)CNC(=O)[C@H](N)C(C)C)[C@]2(C)[C@H](C)CC[C@]3(CCC(=O)[C@H]32)[C@@H](C)[C@@H]1O [VALNEMULIN],0.12,0.03,0.06,0.06,< 86,0.03,0.78,> 77.9,3530,0.015,0.25,0.015,0.06,0.12,0.06,
C=C[C@]1(C)C[C@@H](OC(=O)Cn2cc(-c3cncc(C(=O)Nc4ncnc5[nH]cnc45)c3)nn2)[C@]2(C)[C@H](C)CC[C@]3(CCC(=O)[C@H]32)[C@@H](C)[C@@H]1O,,,,0.06,1740,,1.3,3.6,4110,,,,,,,

# Reference: ChEMBL document CHEMBL6134887, “Linker and Head-Group Exploration of Anti-MRSA Triaromatic Pleuromutilins” (J Med Chem, 2025)
